The text below walks through data of patent US20150299345A1, “ANTIBACTERIAL MONOMERS, ANTIBACTERIAL RESINS AND DENTAL COMPOSITES COMPRISING THE ANTIBACTERIAL RESINS” (UNIVERSITY OF MARYLAND, BALTIMORE, priority 2012, published 2015).

The test system of data set [1] is S. mutans (ATCC 700610, UA159). Put plainly: MIC and MBC by serial microdilution assays. It is filed as cell-based, Streptococcus mutans. The settings on record: for MBC / MIC: 48 h, triplicate; for antibacterial potency (MIC and MBC) compared with another agent: comparison in words. The procedure:
MIC and MBC were measured using S. mutans (ATCC 700610, UA159, American Type Culture, Manassas, Va.). S. mutans is a cariogenic, aerotolerant anaerobic bacterium and the primary causative agent of dental caries (Loesche 1986). MIC and MBC were determined via serial microdilution assays (Imazato S et al. 2006; Huang L et al. 2011). Unpolymerized DMAHM or DMADM monomer was dissolved in brain heart infusion (BHI) broth (BD, Franklin Lakes, N.J.) to give a final concentration of 200 mg/mL. From these starting solutions, serial two fold dilutions were made into 1 mL volumes of BHI broth. 15 μL of stock S. mutans was added to 15 mL of BHI broth with 0.2% sucrose and incubated at 37° C. with 5% CO2. Overnight cultures of S. mutans were adjusted to 2×10^6 CFU/mL with BHI broth, and 50 μL of inocula was added to each well of a 96-well plate containing 50 μL of a series of antibacterial monomer dilution broths. BHI broth with 1×10^6 CFU/mL bacteria suspension without antibacterial agent served as negative control. Chlorhexidine diacetate (CHX) (Sigma, St. Louis, Mo.) served as positive control. The previously-synthesized QADM (Antonucci J M et al. 2012; Cheng L et al. 2012a) served as an antibacterial monomer control. After incubation at 37° C. in 5% CO2 for 48 h, the wells were read for turbidity, referenced by the negative and positive control wells. MIC was determined as the endpoint (the well with the lowest antibacterial agent concentration) where no turbidity could be detected with respect to the controls (Huang L et al. 2011). To determine MBC, an aliquot of 50 μL from each well without turbidity was inoculated on BHI agar plates and incubated at 37° C. in 5% CO2 for 48 h. MBC was determined as the lowest concentration of antibacterial agent that produced no colonies on the plate. The tests were performed in triplicate (Huang L et al. 2011).
Background: In broth dilution the organism is exposed to a series of concentrations in liquid medium.

For data set [2], the system named is Human gingival fibroblasts (HGF). Kind of data set: Cytotoxicity of monomers via MTT assay. It is filed as cell-based. The settings on record: for cytotoxicity / cell viability compared with BisGMA: human gingival fibroblasts, FIG. 1. The method, then: Human gingival fibroblasts (HGF, ScienCell) were cultured in a fibroblast medium (FM). […] Then, HGF were seeded in 96-well plates at 5,000 cells per well. […] After 4 h, the unreacted dye was removed and 150 μL, of dimethyl sulfoxide was added. Absorbance was measured via the microplate reader at 492 nm. […] Cells were also live/dead stained (Molecular Probes) and examined with fluorescence microscopy (TE2000-S, Nikon) as shown in FIG. 1B.
Background: Tetrazolium assays rely on reduction of a dye to a coloured formazan, in cell work by metabolically active cells.

The test system of data set [3] is dental plaque microcosm biofilms. Put plainly: Live/dead assay of biofilms (CLSM). It is filed as cell-based, human saliva inoculum. The settings on record: 48-h biofilms on composite disks, FIG. 5. The method, then: The dental plaque microcosm biofilm model used human saliva as inoculum. Saliva was collected from a healthy adult donor following a previous study (Cheng L et al. 2012b). The donor had natural dentition without active caries or periopathology, and without the use of antibiotics within the last 3 months. […] Stimulated saliva was collected during parafilm chewing and kept on ice. The saliva was diluted in sterile glycerol to a concentration of 70% saliva and 30% glycerol (Cheng L et al. 2012b), and stored at −80° C. The saliva-glycerol stock was added, with 1:50 final dilution, into the growth medium as inoculum. The growth medium contained mucin (type II, porcine, gastric) at a concentration of 2.5 g/L; bacteriological peptone, 2.0 g/L; tryptone, 2.0 g/L; yeast extract, 1.0 g/L; NaCl, 0.35 g/L, KCl, 0.2 g/L; CaCl2, 0.2 g/L; cysteine hydrochloride, 0.1 g/L; haemin, 0.001 g/L; vitamin K1, 0.0002 g/L, at pH 7 (McBain A J 2009). Composite disks were sterilized in ethylene oxide (Anprolene AN 74i, Andersen, Haw River, N.C.). 1.5 mL of inoculum was added to each well of 24-well plates with a composite disk, and incubated in 5% CO2 at 37° C. for 8 h. […] Live bacteria were stained with Syto 9 to produce a green fluorescence, and bacteria with compromised membranes were stained with propidium iodide to produce a red fluorescence. […]

Where [4] appears, read: unpolymerized monomer in BHI broth.

Structures are written as SMILES. Where two headings read alike, the source gives them in different places.

A word on the MBC: it is the smallest concentration meeting the test's criterion for killing. A word on the MIC: it is the lowest concentration found to suppress growth. Regarding `CC(=O)O.CC(=O)O.NC(=N\CCCCCC/N=C(N)/N=C(\N)Nc1ccc(Cl)cc1)/N=C(\N)Nc1ccc(Cl)cc1` [CHX, Chlorhexidine diacetate, reference compound], in data set [1] (setting [4]), the MBC came out at 3.91 µg/mL and the MIC stood at 1.95 µg/mL.

For `C=C(C)C(=O)OCC[N+](C)(C)CCCCCCCCCCCC.[Br-]` [DMADDM, dimethylamino dodecyl methacrylate], the fibroblast viability result in data set [2] (at each monomer concentration (0.5-100 μg/mL), 2 d, n=6, FIG. 1) is “highest fibroblast viability”. Besides, the “cytotoxicity / cell viability compared with BisGMA” value in data set [2] is listed as “less cytotoxic”. The “antibacterial potency (MIC and MBC) compared with another agent” value in data set [1] is “more than two orders of magnitude lower than those of MDAHM”. Moreover, in data set [1] (setting [4]), the minimum bactericidal concentration (MBC) was found to be 12.21 µg/mL and the MIC came to 6.10 µg/mL. Moreover, the “antibacterial activity by live/dead staining of biofilms” value in data set [3] is listed as “responsible for the antibacterial activity”.

Regarding `C=C(C)C(=O)OCC[N+](C)(C)CCCCCCCCCCCCCCCC.[Br-]` [DMAHDM, dimethylamino hexadecyl methacrylate], the “antibacterial potency (MIC and MBC) compared with another agent” value in data set [1] was “an order of magnitude more potent than those for chain length 12”. For the same molecule, in data set [1] (setting [4]), the MBC was found to be 0.61 µg/mL and the minimal inhibitory concentration (MIC) worked out at 0.305 µg/mL.

Take `C=C(C)C(=O)OCC[N+](C)(C)CCCCCC.[Br-]` [DMAHM]: the “antibacterial potency (MIC and MBC) compared with another agent” value in data set [1] is given as “more potent than the previously-synthesized QADM”. Also, in data set [1] (setting [4]), the MBC turned out to be 3130 µg/mL and the minimum inhibitory concentration (MIC) was found to be 1560 µg/mL.

In the case of `C=C(C)C(=O)OCCCCCCCCCCCC[n+]1ccccc1.[Br-]` [MDPB, reference compound], in data set [2], the “cytotoxicity / cell viability compared with BisGMA” value was “less cytotoxic”.

Take `C=C(C)C(=O)OCC[N+](C)(C)CCOC(=O)C(=C)C.[Br-]` [QADM, bis(2-methacryloyloxy-ethyl) dimethyl-ammonium bromide, reference compound]: in data set [1] (Streptococcus mutans, ATCC700610, unpolymerized monomer in BHI broth, read-out: MBC), the MBC is 25000 µg/mL. The MIC in data set [1] (Streptococcus mutans, ATCC700610, unpolymerized monomer in BHI broth, read-out: MIC) came out at 12500 µg/mL.
